In data set [1] the target is T1, RORγt ligand-binding domain (RORγt-LBD) (Homo sapiens, UniProt P51449).
T1 construct: 20 nM recombinantly expressed RORγ-LBD fused to GST
T1 sequence (P51449 269-508 limits assumed): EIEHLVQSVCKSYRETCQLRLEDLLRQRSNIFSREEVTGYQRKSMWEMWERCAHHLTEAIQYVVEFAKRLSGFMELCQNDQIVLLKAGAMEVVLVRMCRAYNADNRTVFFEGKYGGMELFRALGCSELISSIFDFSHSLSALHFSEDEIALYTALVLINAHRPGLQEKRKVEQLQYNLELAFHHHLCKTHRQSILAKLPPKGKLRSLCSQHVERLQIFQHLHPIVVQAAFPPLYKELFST
The data set can be described thus: Time-resolved FRET (TR-FRET) RORγt coactivator assay. The conditions noted are these: GST-RORγ-LBD, biotinylated RIP140 peptide, 2 hours at room temperature. Summed up: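 GST-tagged RORγt-LBD (20 nM) with 30 nM biotinylated RIP140-derived peptide, streptavidin-terbium and d2 anti-GST in CHAPS buffer (1 mM DTT, 2 mM EDTA, 0.1% BSA), 1% DMSO. Compounds at 0.3 nM–30 μM final, equilibrated 2 h, room temperature, dark. Coactivator displacement lowers the TR-FRET signal; IC50 (μM) and Emax (%) reported.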
For orientation: TR-FRET usually uses a lanthanide donor and a delayed reading to cut background.

The next data set has as its system MPO activity. The data set can be described thus: MPO activity in ear skin homogenates of the IMQ induced psoriasis study. The class given is in vivo, C57BL/6 female mice. Conditions: 30 mpk oral, in comparison with IMQ-vehicle group. The protocol: (§1) 8-10 weeks C57BL/6 female mice received a daily topical dose of 62.5 mg/mouse IMQ cream (Aldara® cream 5%; 3M pharmaceuticals, Sweden) on the shaved back and the right ear for 7 consecutive days. Control mice were treated similarly with a control vehicle cream (Vaseline). Test compound (Cpd 24) was orally administered daily from day 0 to day 7 at 3 mg/mL (30 mg/kg). Test compound was given 8 hours before IMQ application. Mice were killed at day 7, 4 h after the last test compound treatment to analyse skin inflammation parameters.
Ear skin tissue were homogenized in PBS containing a protease inhibitor cocktail (P8340, Sigma-Aldrich) by Ultra Turrax, centrifuged and the supernatant was discarded. The pellet was resuspended in 0.5 mL PBS containing 0.5% hexadecyltrimethyl ammonium bromide (HTAB) and 5 mM ethylene-diamine tetra-acetic acid (EDTA). Following centrifugation, 100 μL of supernatants were placed in test tubes with 200 μL PBS-HTAB-EDTA, 1 mL Hanks' balanced salt solution (HBSS), 100 μL of o-dianisidine dihydrochloride (1.25 mg/mL), and 100 μL H2O2 0.05%. […] The MPO activity was determined as absorbance at 460 nm in comparison with medium.
(§2) Statistical evaluation of differences between the experimental groups was determined by using two-way Anova followed by a Bonferroni post test. *** p<0.001, IMQ-Vehicle compared with treatment.

For data set [2], the system named is IMQ induced psoriasis in mice. The data set can be described thus: Imiquimod (IMQ) induced psoriasis study, cumulative clinical score. The class given is in vivo, C57BL/6 female mice. Here is the method:
as §1
The severity of inflammation of the back skin was determined using the following criteria. An objective scoring system was developed based on the clinical Psoriasis Area and Severity Index (PASI), except that for the mouse model the affected skin area is not taken into account in the overall score. Erythema, scaling, and thickening were scored independently on a scale from 0 to 4: 0: none; 1: slight; 2: moderate; 3: marked; 4: severe. The cumulative score (erythema plus scaling plus thickening) served as a measure of the severity of inflammation (scale 0-12).
as §2

For data set [3], the system named is Murine EL-4 lymphoma cell line overexpressing human RORγt. The data set can be described thus: IL-17 secretion from EL4 murine lymphoma. The class given is cell-based. The conditions noted are these: Mus musculus; human RORγt-transfected EL4 cells, PMA (10 ng/mL) and ionomycin (1 μM), 24 h; read-out: IC50, IL-17 secretion inhibition. Summed up:
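EL-4 cells electroporated with hRORγt plasmid, seeded at 150000 cells/well and pretreated with compound for 24 h, then stimulated with PMA (10 ng/mL) plus ionomycin (1 μM final) with compound for a further 24 h at 37 °C. IL-17 in supernatant measured by HTRF or ELISA.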

Each structure is given as a SMILES string.

For orientation: IC50 means the concentration that gives 50% inhibition. As for `Cc1ccc(C(NC(=O)Cc2ccc3c(c2)CC(=O)N3)c2ccc(C)o2)c(N2CCCCC2)c1` (centres unmarked) [Cpd. 24, N-{[4-methyl-2-(piperidin-1-yl)phenyl](5-methylfuran-2-yl)methyl}-2-(2-oxo-2,3-dihydro-1H-indol-5-yl)acetamide], the figures for the half-inhibitory concentration (IC50) in data set [1] and in data set [3] were below 10 nM and below 100 nM, respectively. Further, the “MPO activity in ear homogenates” value with MPO activity was “reduced MPO activity”. Also, in data set [2] (after test compound administration, 30 mg/kg orally daily day 0 to day 7), the adverse effect result is “no adverse effect was observed”. In addition, the “cumulative score (erythema plus scaling plus thickening)” value in data set [2] (orally 30 mpk, day 5, compared to control treatment) is listed as “significant decrease”.

For the origin of these results see patent publication US11052092B2, “N-{[2-(piperidin-1-yl)phenyl](phenyl)methyl}-2-(3-oxo-3,4-dihydro-2H-1,4-benzoxazin-7-yl)acetamide derivatives and related compounds as ROR-gamma modulators for treating autoimmune diseases” (Genfit, priority 2017, dated 2021).
